The subject of experiment [1] is hApoE2 Knock-in transgenic mice. Put plainly: Effects on triglycerides and cholesterol metabolism in vivo. On the set-up: species or system mouse. In short, it runs like this: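 hApoE2 knock-in mice (n=6/group, matched for body weight and plasma lipids) dosed once daily by intragastric gavage in carboxymethylcellulose for 7 or 8 days at indicated doses. Terminal blood on EDTA; total cholesterol and triglycerides measured colorimetrically.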

For the next experiment, the target named is T1, human PPARγ (Homo sapiens, UniProt P37231).
T1 construct: expressed in transfected cells; host or cells: RK13 or COS-7
T1 sequence (P37231 238-503 limits assumed): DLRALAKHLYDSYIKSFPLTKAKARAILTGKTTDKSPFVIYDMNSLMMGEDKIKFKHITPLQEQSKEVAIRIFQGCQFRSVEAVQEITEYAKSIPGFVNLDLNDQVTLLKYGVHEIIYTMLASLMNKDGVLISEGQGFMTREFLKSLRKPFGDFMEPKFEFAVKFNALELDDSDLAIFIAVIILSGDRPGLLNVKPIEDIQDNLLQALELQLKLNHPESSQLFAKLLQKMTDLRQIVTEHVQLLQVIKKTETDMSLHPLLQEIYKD
Put plainly: PPARγ/Gal4 transactivation system. Type of experiment: cell-based. The conditions noted are these: 10 μM. On the procedure: PPAR activation was tested in vitro in RK13 or COS-7 fibroblast cell lines by measuring the transcriptional activity of chimeras composed of the DNA binding domain of the yeast Gal4 transcription factor and the ligand binding domain of the different PPARs. These latter results were then confirmed in cell lines according to the following protocols.
Culture protocols: RK13 were from ECACC (Porton Down, UK) and were grown in DMEM medium supplemented with 10% (V/V) fetal calf serum, 100 U/ml penicillin (Gibco, Paisley, UK) and 2 mM L-glutamine (Gibco, Paisley, UK). COS-7 cells were from ATCC and were grown in DMEM medium supplemented with 10% (V/V) fetal calf serum, 1% penicillin/streptomycine (Biochrom, AG), 1% of amino acids (Gibco) and 1% sodium pyruvate (Gibco).
The culture medium was changed every two days. Cells were kept at 37° C. in a humidified 95% air/5% CO2 atmosphere.
Description of plasmids used for transfection: The plasmids Gal4(RE)_TkpGL3, pGal4-hPPARα, pGal4-hPPARγ, pGal4-hPPARδ and pGal4-φ have been described in the literature (Raspe E et al., 1999). The pGal4-hPPARα, pGal4-hPPARγ and pGal4-hPPARδ constructs were obtained by cloning into the pGal4-φ vector PCR-amplified DNA fragments corresponding to the DEF domains of the human PPARs nuclear receptors.
Transfection of RK13: RK13 cells were seeded in 24-well culture dishes at 5×10^4 cells/well and transfected for 2 hours with the reporter plasmid Gal4(RE)_TkpGL3 (50 ng/well), the expression vectors pGal4-φ, pGal4-hPPARα, pGal4-hPPARγ and pGal-hPPARδ (100 ng/well) and the transfection efficiency control vector pRL-CMV (1 ng/well) according to the previously described protocol (Raspe E, Madsen L, Lefebvre A M, Leitersdorf I, Gelman L, Peinado-Onsurbe J, Dallongeville J, Fruchart J C, Berge R and Staels B, 1999), then incubated for 36 hours with the test compounds. RK13 cells were incubated with the different compounds at concentrations of 10, 30 and 100 μM or 1, 10 and 100 μM for 24 hours. At the end of the experiment, the cells were lysed (Gibco, Paisley, UK) and luciferase activity was determined with a Dual-Luciferase™ Reporter Assay System kit (Promega, Madison, Wis., USA) according to the supplier's instructions. The protein content of the cell extracts was then measured with the Bio-Rad Protein Assay (Bio-Rad, Munich, Germany) as directed by the supplier.
Transfection of COS7: Cells in suspension are transfected, in the presence of 10% (V/V) fetal calf serum, with 150 ng of DNA per well with a pGal4-PPAR/Gal4(RE)_TkpGL3 ratio of 1/10. Cells are then seeded in 96 well plates (4×10^4 cells/well) and incubated for 24 hours at 37° C. Activation with compounds is performed on 24 hours at 37° C. in culture medium without serum. At the end of the activation period, cells are lysed and luciferase activity is determined, using the Steady Glow Luciferase Kit (Promega), according to the supplier's instructions.

The subject of experiment [2] is Human THP-1 monocytes differentiated in macrophages. Put plainly: Anti-inflammatory properties: cytokine secretion by LPS-stimulated macrophages. The format is cell-based. The settings on record: pre-treated 24 hours, LPS 6 hours, vs non-treated cells. The procedure: TNF-α (tumor necrosis factor alpha) and IL-6 (interleukin-6) are two important markers of the inflammatory response to stress. The anti-inflammatory property of the compound 29 was evaluated as follows:
Human THP-1 monocytes were differentiated in macrophages by a 72 h incubation with 30 ng/ml of PMA (Phorbol Myristate Acetate). Differentiated macrophages were then treated with the inventive compound 29 at different concentrations during 24 h in culture medium without serum. Stimulation with LPS 1 μg/ml was finally performed during 6 hours (LPS bacterial endotoxin (Escherichia coli 0111 :B4) (Sigma, France) was reconstituted in distilled water).
TNF-α and IL-6 secretion were quantified in the culture medium of LPS-stimulated cells with TNF-α and IL6 ELISA kits (Immunotech, France).

For experiment [3], the system named is C57BLKS-m Lepr^db transgenic mice. Put plainly: Antidiabetic effect on insulin and glucose. The format is in vivo, mouse. The conditions noted are these: 0.1 to 100 mg/Kg/day for 28 days. The procedure: Genetically modified C57BLKS-m Lepr^db mice were used to asses antidiabetic effect of the inventive compounds. Mice were randomized according to their plasma lipid, glucose and insulin contents. Treatments were administered once daily by gavage (10 ml/kg) for the duration of the treatment. For oral administrations, the drugs were suspended in CMC 1% or CMC 1%+Tween 80 0.1%. The plasma glucose was measured using a kit reagent from Biomerieux (France). The plasma insulin was measured using a solid phase two-site enzyme immunoassay from Crystal Chem Inc. (USA). The results are exemplified in FIGS. 5-1 to 5-4 which illustrate the activity of inventive compounds 29 and 62 on glucose and insulin.

[4] abbreviates: 200, 50, 12.5 and 3.125 mg/kg/day for 8 days.

`CSc1ccc(C(=O)/C=C/c2cc(C)c(OC(C)(C)C(=O)O)c(C)c2)cc1` [Compound 29, 1-[4-methylthiophenyl]-3-[3,5-dimethyl-4-carboxydimethylmethyloxyphenyl]prop-2-en-1-one]: the plasma cholesterol result in experiment [1] (50 mg/kg/day for 7 or 8 days, FIGS. 4-13, 4-15, 4-17, 4-19) is on record as “decrease”. Also, in experiment [1] (50 mg/kg/day for 7 or 8 days, FIGS. 4-14, 4-16, 4-18, 4-20), the plasma triglycerides entry is on record as “decrease”. Moreover, in experiment [1] (setting [4]), the “cholesterol in lipoparticle subfraction (exclusion chromatography)” value was “decrease”, the plasma cholesterol level result was “dose-dependent decrease”, the plasma triglycerides level result is reported as “dose-dependent decrease” and the “triglycerides in lipoparticle subfraction (exclusion chromatography)” value is “decrease”. The same compound yielded a maximum induction factor at human PPARγ of 33.9. For the same compound, the IL-6 secretion entry in experiment [2] (0.1, 1 and 10 μM) is recorded as “decrease”. Moreover, the TNF-α secretion result in experiment [2] (1 and 10 μM) is on record as “decrease”. In experiment [3], the plasma glucose level result is listed as “decrease” and the plasma insulin level entry is recorded as “decrease”.

Consider `Cc1cc(/C=C/C(=O)c2ccc(Br)cc2)cc(C)c1OC(C)(C)C(=O)O` [Compound 41, 1-[4-bromophenyl]-3-[3,5-dimethyl-4-carboxydimethylmethyloxyphenyl]prop-2-en-1-one], for which, in experiment [1] (50 mg/kg/day for 8 days), the “cholesterol in lipoparticle subfraction (exclusion chromatography)” value is “decrease”, the plasma cholesterol result was “decrease”, the plasma triglycerides entry is “decrease” and the “triglycerides in lipoparticle subfraction (exclusion chromatography)” value is reported as “decrease”.

The record behind these values is patent US7566737B2 (Genfit, priority 2002, dated 2009).
